According to PMC6225228, “Design, Synthesis and Evaluation of N-pyrazinylbenzamides as Potential Antimycobacterial Agents” (Molecules : A Journal of Synthetic Chemistry and Natural …, 2018):
Values after ≈ are worked out from the molar mass of the structure shown. Where two headings read alike, the source gives them in different places. Marks after values point to notes of the source that are not given here.

Columns and labels:
[1] = tested on: Mycobacterium tuberculosis H37Rv (Mtb); settings: cited from earlier work; for Amides MIC (value in parentheses): second value in parentheses
[2] = tested on: Mycobacterium tuberculosis H37Rv CNCTC My 331/88 (ATCC 27294); assay: Antimycobacterial microdilution MABA, M. tuberculosis; type: cell-based; settings: for MIC: Mycobacterium tuberculosis
[3] = tested on: M. kansasii CNCTC My 235/80 (ATCC 12478); assay: Antimycobacterial microdilution MABA, M. kansasii; type: cell-based, Mycobacterium kansasii; settings: Mycobacterium kansasii
[4] = tested on: M. avium ssp. avium CNCTC My 80/72 (ATCC 15769); assay: Antimycobacterial microdilution MABA, M. avium; type: cell-based, Mycobacterium avium; settings: for MIC: Mycobacterium avium
[5] = tested on: Mycobacterium smegmatis CCM 4622 (ATCC 607); assay: Antimycobacterial microdilution, M. smegmatis; type: cell-based; settings: Mycolicibacterium smegmatis, read-out: M. smeg. ATCC 607 MIC
[6] = human, HepG2 cells
[7] = tested on: Mycobacterium tuberculosis H37Rv (Mtb); settings: cited from earlier work
[8] = tested on: Staphylococcus aureus CCM 4516/08; assay: Antibacterial microdilution broth, SA; type: cell-based; settings: Staphylococcus aureus
[9] = tested on: Staphylococcus aureus H 5996/08 methicillin resistant; assay: microbe, parasite or virus in culture; type: cell-based; settings: Staphylococcus aureus, MRSA, read-out: MIC MRSA
[10] = tested on: Staphylococcus epidermidis H 6966/08; assay: Antibacterial microdilution broth, SE; type: cell-based; settings: Staphylococcus epidermidis, read-out: MIC SE
[11] = tested on: Enterococcus sp. J 14365/08; assay: Antibacterial microdilution broth, EF; type: cell-based; settings: Enterococcus, read-out: MIC EF
[12] = tested on: Escherichia coli CCM 4517; assay: Antibacterial microdilution broth, EC; type: cell-based; settings: Escherichia coli, read-out: MIC EC
[13] = tested on: Pseudomonas aeruginosa CCM 1961; assay: Antibacterial microdilution broth, PA; type: cell-based; settings: Pseudomonas aeruginosa, read-out: MIC PA
[14] = tested on: Candida albicans ATCC 44859; assay: Antifungal microdilution broth, CA; type: cell-based; settings: Candida albicans, read-out: MIC CA
[15] = tested on: Candida tropicalis 156; assay: Antifungal microdilution broth, CT; type: cell-based; settings: read-out: MIC CT
[16] = tested on: Candida krusei E28; assay: Antifungal microdilution broth, CK; type: cell-based; settings: Pichia kudriavzevii, read-out: MIC CK
[17] = tested on: Candida glabrata 20/I; assay: Antifungal microdilution broth, CG; type: cell-based; settings: Nakaseomyces glabratus, 20/I, read-out: MIC CG
[18] = tested on: Trichosporon asahii 1188; assay: Antifungal microdilution broth, TA; type: cell-based; settings: read-out: MIC TA
[19] = tested on: Aspergillus fumigatus 231; assay: Antifungal microdilution broth, AF; type: cell-based; settings: read-out: MIC AF
[20] = tested on: Lichtheimia corymbifera 272; assay: Antifungal microdilution broth, LC; type: cell-based; settings: read-out: MIC LC
[21] = tested on: Trichophyton interdigitale 445; assay: Antifungal microdilution broth, TI; type: cell-based; settings: read-out: MIC TI
[22] = Šula's semisynthetic medium, pH = 5.6, turbidity, first value
[23] = Middlebrook 7H9, pH = 6.6, MABA
[24] = Šula's semisynthetic medium, pH = 5.6, turbidity
[25] = Šula's semisynthetic medium, pH = 5.6, MABA

Compound: O=C(Nc1cccc(O)c1)c1cnc(Cl)cn1 [Amide R1=5-Cl R2=3-OH]
- Amides MIC [1, 22]: 6.25 ^c [18] μg/mL

Compound: O=C(Nc1cncc(Cl)n1)c1cccc(C(F)(F)F)c1 [Compound 3n, N-(6-chloropyrazin-2-yl)-3-(trifluoromethyl)benzamide]
- MIC ([2]; Middlebrook 7H9 with OADC growth supplement, pH = 6.6, MABA, read-out: Mtb H37Rv ATCC 27294 MIC): 25 µg/mL
- MIC ([2]; molar concentration, read-out: Mtb MIC): 82.9 µM
- MIC ([3]; ATCC12478, Middlebrook 7H9 with OADC, pH 6.6, MABA, read-out: M. kans. ATCC 12478 MIC): 25 µg/mL (≈ 82.9 µM)
- MIC ([4]; ATCC15769, Middlebrook 7H9 with OADC, pH 6.6, MABA, read-out: M. avium ATCC 15769 MIC): 50 µg/mL (≈ 166 µM)
- MIC ([5]; Middlebrook 7H9 with OADC, resazurin): 125 µg/mL (≈ 414 µM)
- melting point: 124.2 to 125 °C
- IC50 at 24 h [6]: > 250 µM

Compound: Cc1ccc(NC(=O)c2cncc(Cl)n2)cc1 [Amide R1=6-Cl R2=4-CH3]
- Amides Inhibition (%) at 6.25 μg/mL (TAACF) [7]: 71 [32] %

Compound: COc1cccc(NC(=O)c2cnccn2)c1 [Amide R1=H R2=3-OCH3]
- Amides MIC [1, 23]: >100 ^b [27] μg/mL

Compound: O=C(Nc1ccc(Br)cc1)c1cnc(Cl)cn1 [Amide R1=5-Cl R2=4-Br]
- Amides MIC [1, 22]: 3.13 ^c [18] μg/mL

Compound: O=C(Nc1cccc(C(F)(F)F)c1)c1cnc(Cl)cn1 [Amide R1=5-Cl R2=3-CF3]
- Amides MIC [1, 22]: 3.13 µg/mL
- Amides MIC (value in parentheses) [1, 24]: 6.25 µg/mL

Compound: O=C(Nc1ccccc1)c1cnccn1 [Amide R1=H R2=H]
- Amides MIC [1, 23]: >100 ^b [27] μg/mL
- Amides Inhibition (%) at 6.25 μg/mL (TAACF) [7]: 0 [31] %

Compound: O=C(Nc1ccccc1Cl)c1cncc(Cl)n1 [Amide R1=6-Cl R2=2-Cl]
- Amides MIC [1, 25]: 100 ^d [34] μg/mL

Compound: O=C(Nc1cccc(Cl)c1)c1cnc(Cl)cn1 [Amide R1=5-Cl R2=3-Cl]
- Amides MIC [1, 22]: 6.25 µg/mL
- Amides MIC (value in parentheses) [1, 24]: 3.13 µg/mL

Compound: O=C(Nc1cccc(Cl)c1)c1cncc(Cl)n1 [Amide R1=6-Cl R2=3-Cl]
- Amides Inhibition (%) at 6.25 μg/mL (TAACF) [7]: 14 [33] %

Compound: O=C(Nc1cccc(C(F)(F)F)c1)c1cncc(Cl)n1 [Amide R1=6-Cl R2=3-CF3]
- Amides Inhibition (%) at 6.25 μg/mL (TAACF) [7]: 77 [32] %

Compound: COc1cccc(NC(=O)c2cncc(Cl)n2)c1 [Amide R1=6-Cl R2=3-OCH3]
- Amides Inhibition (%) at 6.25 μg/mL (TAACF) [7]: 2 [31] %

Compound: O=C(Nc1ccc(O)cc1)c1cnc(Cl)cn1 [Amide R1=5-Cl R2=4-OH]
- Amides MIC [1, 22]: 3.13 µg/mL
- Amides MIC (value in parentheses) [1, 24]: 12.5 µg/mL

Compound: O=C(Nc1ccccc1Cl)c1cnccn1 [Amide R1=H R2=2-Cl]
- Amides MIC ([1]; Šula's semisynthetic medium, pH = 5.6, growth indicated by turbidity): 50 ^c [19] μg/mL

Compound: COc1ccc(NC(=O)c2cnccn2)cc1 [Amide R1=H R2=4-OCH3]
- Amides MIC [1, 23]: >100 ^b [27] μg/mL

Compound: O=C(Nc1ccc(Cl)cc1)c1cncc(Cl)n1 [Amide R1=6-Cl R2=4-Cl]
- Amides Inhibition (%) at 6.25 μg/mL (TAACF) [7]: 65 [33] %

Compound: Cc1ccc(NC(=O)c2cnccn2)cc1 [Amide R1=H R2=4-CH3]
- Amides MIC [1, 23]: 100 ^b [27] μg/mL
- Amides Inhibition (%) at 6.25 μg/mL (TAACF) [7]: 86 [32] %

Compound: O=C(Nc1ccccc1)c1cncc(Cl)n1 [Amide R1=6-Cl R2=H]
- Amides MIC [1, 25]: 25 ^d [34] μg/mL
- Amides Inhibition (%) at 6.25 μg/mL (TAACF) [7]: 32 [31] %

Compound: O=C(Nc1cccc(Cl)c1)c1cnccn1 [Amide R1=H R2=3-Cl]
- Amides MIC [1, 23]: >100 ^b [27] μg/mL
- Amides Inhibition (%) at 6.25 μg/mL (TAACF) [7]: 14 [33] %

Compound: COc1ccccc1NC(=O)c1cnccn1 [Amide R1=H R2=2-OCH3]
- Amides MIC [1, 23]: >100 ^b [27] μg/mL

Compound: O=C(Nc1cccc(C(F)(F)F)c1)c1cnccn1 [Amide R1=H R2=3-CF3]
- Amides MIC [1, 23]: 50 µg/mL
- Amides MIC ([1]; conditions not footnoted): 6.25 µg/mL
- Amides Inhibition (%) at 6.25 μg/mL (TAACF) [7]: 99 [32] %

Compound: O=C(Nc1ccc(Cl)cc1)c1cnccn1 [Amide R1=H R2=4-Cl]
- Amides MIC [1, 23]: 50 ^b [27] μg/mL
- Amides Inhibition (%) at 6.25 μg/mL (TAACF) [7]: 4 [33] %

Compound: COc1ccccc1NC(=O)c1cncc(Cl)n1 [Amide R1=6-Cl R2=2-OCH3]
- Amides Inhibition (%) at 6.25 μg/mL (TAACF) [7]: 6 [35] %

Compound: COc1ccccc1C(=O)Nc1cnccn1 [Compound 1e]
- Mtb H37Rv ATCC 27294 MIC ([2]; Middlebrook 7H9 with OADC growth supplement, pH = 6.6, MABA): >100 µg/mL
- MIC ([2]; read-out: Mtb H37Rv ATCC 27294 MIC, Middlebrook 7H9 with OADC growth supplement, pH = 6.6, MABA): > 100 µg/mL
- MIC ([3]; ATCC12478, pH 6.6, read-out: M. kans. ATCC 12478 MIC, Middlebrook 7H9 with OADC, pH 6.6, MABA): 100 µg/mL (≈ 436 µM)
- M. avium ATCC 15769 MIC ([4]; Middlebrook 7H9 with OADC, pH 6.6, MABA): >100 µg/mL
- MIC ([4]; ATCC15769, pH 6.6, read-out: M. avium ATCC 15769 MIC): > 100 µg/mL
- MIC [5]: 125 µg/mL (≈ 545 µM)
- MIC ([8]; CCM4516, 24 h, read-out: MIC SA, 24 h): > 500 µM
- MIC ([8]; CCM4516, 48 h, read-out: MIC SA, 48 h): > 500 µM
- MIC ([9]; 24 h): > 500 µM
- MIC ([9]; 48 h): > 500 µM
- MIC ([10]; H6966/08, 24 h): > 500 µM
- MIC ([10]; H6966/08, 48 h): > 500 µM
- MIC ([11]; SP.J14365/08, 24 h): > 500 µM
- MIC ([11]; SP.J14365/08, 48 h): > 500 µM
- MIC ([12]; CCM4517, 24 h): > 500 µM
- MIC ([12]; CCM4517, 48 h): > 500 µM
- MIC ([13]; CCM1961, 72 h): > 500 µM
- MIC ([13]; CCM1961, 120 h): > 500 µM
- MIC ([14]; ATCC44859, 24 h): > 500 µM
- MIC ([14]; ATCC44859, 48 h): > 500 µM
- MIC ([15]; Candida tropicalis, 156, 24 h): > 500 µM
- MIC ([15]; Candida tropicalis, 156, 48 h): > 500 µM
- MIC ([16]; E28, 24 h): > 500 µM
- MIC ([16]; E28, 48 h): > 500 µM
- MIC ([17]; 24 h): > 500 µM
- MIC ([17]; 48 h): > 500 µM
- MIC ([18]; Trichosporon asahii, 1188, 24 h): > 500 µM
- MIC ([18]; Trichosporon asahii, 1188, 48 h): > 500 µM
- MIC ([19]; Aspergillus fumigatus, 231, 24 h): > 500 µM
- MIC ([19]; Aspergillus fumigatus, 231, 48 h): > 500 µM
- MIC ([20]; Lichtheimia corymbifera, 272, 24 h): > 500 µM
- MIC ([20]; Lichtheimia corymbifera, 272, 48 h): > 500 µM
- MIC ([21]; Trichophyton interdigitale, 445, 72 h): > 500 µM
- MIC ([21]; Trichophyton interdigitale, 445, 120 h): > 500 µM
- melting point: 100.3 to 102.4 °C
